Laboratory results taken from PMC6244206, “C-Terminal Residue of Ultrashort Peptides Impacts on Molecular Self-Assembly, Hydrogelation, and Interaction with Small-Molecule Drugs” (Scientific Reports, 2018).
Several values for one entry are separate records, joined by “and”; a condition that tells them apart may be missing. Equal values may be shown once.

Columns and labels:
[1] = Solubility of peptides in phosphate-buffered saline to form clear solutions; type: physicochemical; conditions: pH 7.4
Procedure: The peptides were prepared via standard solid-phase peptide synthesis. The purification of all peptides was straightforward, except for peptide 1D. […] As a result, it frequently precipitated on the reversed-phase column during HPLC (high performance liquid chromatography) purification with a gradient of acetonitrile/water, leading to poor yields (<10%). The solubilities of peptides 1 and 2 in phosphate-buffered saline (PBS; pH 7.4) to form clear solutions were then tested; peptides 1A and 2A were also assessed as references. […] As Table 1 indicates, the hexapeptides dissolve to a lower extent than the tripeptides. This is reflective of the greater propensity of the hexapeptides to self-assemble and aggregate due to their longer hydrophobic backbone. In addition, peptides with lysine and arginine dissolve to a greater extent due to their charged side chains at pH 7.4.

[2] = Zeta potential measurements of peptide fibrils; type: physicochemical; conditions: in water, peptide 10 mM, 25 °C; mean of triplicate measurements
Procedure: The zeta potential of the peptide fibrils was measured with an Anton Paar Litesizer 500 Particle Sizer. An omega zeta potential cuvette was utilised for the measurements, which was kept at a constant temperature of 25 °C. Triplicate measurements of each peptide sample were made at concentrations of 10 mM in water.

[3] = Gelation studies of peptides in PBS; type: physicochemical
Procedure: Although peptide 1C could form a gel at 40 mg/mL (30 mM), the hydrogel formed was opaque and inhomogeneous; this is a big contrast to peptide 1A that forms a clear and transparent hydrogel (Fig. 3a). […] On the other hand, perhaps unsurprisingly, the tripeptides generally require higher concentrations to gel. Peptide 2A was previously reported to require a higher peptide concentration to gel than peptide 1A[50]. This has also been observed for peptide 2B, in which 30 mM is required (c.f. 15 mM for peptide 2A). […] As with peptide 1D, peptide 2D could not gel and only precipitated. […] When the hydrophilic components are dominant, the enhanced solubility reduces the driving forces for self-assembly. Consequently, hydrogelation is observed at markedly higher concentrations. Such a balance of hydrophilicity/hydrophobicity has been exploited (via enzymatic control) for the formulation of hydrogels[52],[53].
All peptides were prepared via fluoren-9-ylmethoxycarbonyl (Fmoc)-based solid phase peptide synthesis and purified via reversed-phase high performance liquid chromatography-mass spectrometry (HPLC-MS) on an Agilent 6130 Quadrupole LC/MS system. Peptide hydrogels were prepared by weighing out the appropriate peptide mass in 2 mL-vials. After the requisite volume of phosphate-buffered saline (PBS) was added, the peptide-water mixture was shaken and sonicated for 10 s. […]

[4] = Rheological studies of the peptide hydrogels; type: physicochemical; conditions: hydrogels 40 mg/mL in PBS, oscillatory strain sweep, 6.28 rad/s, 25 °C, triplicates
Procedure: Viscoelastic properties of the hydrogels were assessed at 25 °C with an ARES-G2 rheometer (TA Instruments, Piscataway, NJ) in the 25.0 mm-diameter titanium parallel plate geometry and a gap distance of 0.8 mm. For oscillatory frequency sweep studies, the plate rotation was varied between 0.1–100 rad/s at a constant strain of 0.1%. For oscillatory strain sweep studies, the strain was varied between 0.001–100% at a constant frequency of 6.28 rad/s. Each experiment was carried out in triplicates. This procedure was also previously described by us[88].

[5] = Small-molecule drug elution studies from peptide hydrogels; type: physicochemical; conditions: for Drug loading capacity in the peptide hydrogels: SMD 2 mM in peptide hydrogels 20 mM (peptides 1A and 1B)
Procedure: We compared the SMD elution profiles of the peptide hydrogels with the theoretical maximal amount of SMD that would diffuse from the hydrogel into the extra volume of PBS if there were no obstruction to diffusion.
The peptides were weighed out in 4 mL-vials, after which phosphate-buffered saline (PBS) containing the small-molecule drug (SMD final concentration = 2 mM) was added to a final volume of 0.30 mL each. The peptide-SMD-PBS mixtures were then shaken and sonicated for 10 s, after which the mixtures were allowed to anneal for 24 h. After that, 0.75 mL of fresh PBS was slowly added with a pipettor to the surface of the hydrogel so as not to disturb the surface of the gel. After 24 h at 25 °C, the PBS was carefully extracted with a pipettor for UV/vis analysis; a fresh volume (0.75 mL) of PBS was then replaced. This process was repeated as many times as the number of pre-determined elution samples. The extracted PBS was transferred into a cuvette (pathlength = 10 mm) and analysed with an Agilent 8543 UV/visible spectrometer for the presence of the SMD. […] A control experiment was set up for each peptide hydrogel, for which no drug was added. This is to account for absorption at the respective wavelengths due to eluted peptide. The elution profile of each peptide is compared with a theoretical maximal elution profile, viz. the theoretical maximal amount of SMD that would diffuse from the hydrogel into the extra volume of PBS if there were no obstruction to diffusion. The cumulative eluted percentage of SMD at each point is given by: [1 − (1/3.5)^n] 100%, where n is the number of elution.

[6] = PBS; previously reported; cited from earlier work
Procedure: Although peptide 1C could form a gel at 40 mg/mL (30 mM), the hydrogel formed was opaque and inhomogeneous; this is a big contrast to peptide 1A that forms a clear and transparent hydrogel (Fig. 3a). […] This is a big contrast to peptides 1E and 2E, which were previously reported t ...

[7] = cited from earlier work

## acetylated Leu-Ile-Val-Ala-Gly-Lys-NH2 [Peptide 1A]
[1]
  Soluble peptide concentration: 3 mg/mL
[2]
  Zeta potential: +33.40 ± 0.17 mV
[3]; 40 mg/mL in PBS
  Appearance of hydrogel at 40 mg/mL: transparent hydrogels
[3]; phosphate-buffered saline, pH 7.4, at minimal gelation concentration
  Status of gel: Clear, transparent
[4]
  Yield stress / strain at which the hydrogel breaks down: 3%
[5]; doxorubicin 2 mM in PBS
  Hydrogel formation with doxorubicin: formed stable hydrogels
[5]; doxorubicin 2 mM in peptide hydrogel 20 mM, PBS pH 7.4, 25 °C, repeated elutions with 0.75 mL PBS, UV/vis 480 nm, n = 3
  Encapsulated doxorubicin eluted from peptide hydrogel: 40%
[5]; methotrexate 2 mM in PBS
  Hydrogel formation with methotrexate: could do so with methotrexate (with some coagulation within the hydrogel)
[5]; naltrexone 2 mM in PBS
  Hydrogel formation with naltrexone: formed stable hydrogels
[6]
  Gelation concentration: 10 mg/mL and 6 mM

## O=C1CC[C@@]2(O)[C@H]3Cc4ccc(O)c5c4[C@@]2(CCN3CC2CC2)[C@H]1O5 [naltrexone, reference compound]
[5]
  Drug loading capacity in the peptide hydrogels: 0.67 mg/g
[7]
  pKa: ~ 8.1

## CN(Cc1cnc2nc(N)nc(N)c2n1)c1ccc(C(=O)N[C@@H](CCC(=O)O)C(=O)O)cc1 [methotrexate, reference compound]
[5]
  Drug loading capacity in the peptide hydrogels: 0.89 mg/g
